The text below walks through data of patent publication US10383819B1, “Method to effect biphasic bioavailability of oral euphoric psychogenic cannabinoids” (Callitas Therapeutics, Inc., priority 2018, dated 2019).

A short description of one series: Respiratory depression. The settings on record: in vivo. Here is the method: The biphasic THC bioavailability, rapid oral absorption of THC, and the delayed, subsequent conversion of THC into 11-OH THC, provide both an immediate euphoric state and an extended euphoric state, 12-18 hours, that could provide a safe drug alternative to opioids. Opioids cause respiratory depression and overdose deaths from respiratory depression relative to opioid dose. This is the rationale of the second reference, and the reason that Massachusetts prioritized recreational cannabis dispensary licenses to areas of high opioid overdose deaths.

The conditions of series [1]: cited from earlier work.
Series [2] is described as follows: Menthol/1-arginine enhanced oral mucous membrane absorption of THC and euphoric effect. Here is the method:
FIG. 1 of Human Cannabinoid Pharmacokinetics, by Marilyn A. Huestis, (www.pubmed.gov/17712819) published as Chem Biodivers. 2007 August: 4(8): 1770-1804. […] This is with 8 inhalations over 10 minutes, in 6 patients. […] The method entails maintaining the menthol/1-arginine/THC coated edible THC in the oral cavity for about 10 minutes before chewing the edible.

For series [3] the following is noted: cited from earlier work. This is another data set of the same source.
Setting [4] is: menthol/1-arginine enhanced, oral cavity.

Regarding `CCCCCc1cc(O)c2c(c1)OC(C)(C)[C@@H]1CCC(CO)=C[C@@H]21` [11-OH THC, 11-hydroxy tetrahydrocannabinol], in “Respiratory depression”, the respiratory depression result was “do not cause respiratory depression”. Besides, the “maximum effect (plasma concentration)” value in series [1] (6 hours after ingestion) is on record as 110 micrograms/ml. Also, in series [1] (after ingestion of THC), the “area under the curve (AUC) of plasma concentration relative to THC” value is recorded as “triple”, the “duration of plasma concentration” value is given as “over 24 hours”, the “plasma concentration at peak effect relative to the peak THC plasma concentration” value is on record as “double” and the “time after ingestion up to which an effect is produced” value is recorded as “up to 15 hours”. In addition, in series [1] (after ingestion of THC), the “time of maximum effect after ingestion” value was 6 h.
Consider `CCCCCc1cc(O)c2c(c1)OC(C)(C)[C@@H]1CCC(C)=C[C@@H]21` [THC, delta-9 tetrahydrocannabinol], for which, in series [2] (setting [4]), the “oral mucous membrane absorption of THC relative to the efficacy of smoked/inhaled THC” value is given as “about 70%” and the “window in which oral mucous membrane absorption occurs” value fell in the range of 10 to 15 min. The “duration of euphoric effect” value in series [2] (orally absorbed THC, depending upon THC dosage) is 4 to 8 h. In addition, the respiratory depression entry in the series “Respiratory depression” was “do not cause respiratory depression”. In addition, the “metabolism of inhaled or smoked THC into 11-OH THC” value in series [3] (inhaled or smoked) is “not metabolized into 11-OH THC”. In addition, in series [3] (smoking 3.55% THC cannabis, 8 inhalations over 10 minutes, 6 patients, from 0 in 10 minutes), the “rise of plasma THC” value was 150 micrograms/ml. Also, the “duration of plasma concentration” value in series [1] (after ingestion of THC) is 12 h.
As for Cannabis, the respiratory depression result in the series “Respiratory depression” was “do not cause respiratory depression”.
